Measured values from patent US9492471B2, “Methods of treating a disease or disorder associated with Bruton'S Tyrosine Kinase” (Celgene Avilomics Research, Inc., priority 2013, dated 2016).
Read-outs that look alike come from different tables or passages of the source.

Tests used:
Assay in all cases: HotSpot kinase profiling
Format in all cases: biochemical
NEK4 = biological target: T1, NEK4 (Homo sapiens, UniProt P51957)
T1 construct: purchased Reaction Biology Corp
Method in brief: (§1)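 Activity is measured by radiolabel transfer captured on P81 filters after a 2 h room-temperature reaction of kinase, substrate and cofactors. Values are percent inhibition against DMSO.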

TBK1 = biological target: T2, TBK1 (Homo sapiens, UniProt Q9UHD2)
T2 construct: purchased Reaction Biology Corp
T2 sequence (Q9UHD2 1-729): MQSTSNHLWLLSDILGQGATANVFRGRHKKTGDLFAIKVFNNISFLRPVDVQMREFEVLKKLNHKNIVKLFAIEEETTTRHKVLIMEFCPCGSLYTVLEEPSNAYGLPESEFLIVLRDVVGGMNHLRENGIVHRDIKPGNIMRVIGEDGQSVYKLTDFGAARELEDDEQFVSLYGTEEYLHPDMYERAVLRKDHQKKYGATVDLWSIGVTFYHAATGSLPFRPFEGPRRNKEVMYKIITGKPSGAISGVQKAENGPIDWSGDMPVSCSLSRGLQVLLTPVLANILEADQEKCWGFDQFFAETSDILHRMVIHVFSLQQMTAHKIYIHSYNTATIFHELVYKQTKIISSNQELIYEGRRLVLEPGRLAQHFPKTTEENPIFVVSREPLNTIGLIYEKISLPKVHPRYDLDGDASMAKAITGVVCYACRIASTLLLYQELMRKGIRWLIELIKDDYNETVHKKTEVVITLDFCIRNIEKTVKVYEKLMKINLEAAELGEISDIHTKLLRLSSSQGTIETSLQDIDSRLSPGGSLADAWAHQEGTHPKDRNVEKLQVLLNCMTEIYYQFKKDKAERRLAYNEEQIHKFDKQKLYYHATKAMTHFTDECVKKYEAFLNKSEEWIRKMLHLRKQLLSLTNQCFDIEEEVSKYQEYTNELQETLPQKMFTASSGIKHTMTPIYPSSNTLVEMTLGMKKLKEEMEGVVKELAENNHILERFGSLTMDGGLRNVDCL
Method in brief: as §1

PASK = biological target: T3, PASK (Homo sapiens, UniProt Q96RG2)
T3 construct: purchased Reaction Biology Corp
T3 sequence (Q96RG2 whole entry): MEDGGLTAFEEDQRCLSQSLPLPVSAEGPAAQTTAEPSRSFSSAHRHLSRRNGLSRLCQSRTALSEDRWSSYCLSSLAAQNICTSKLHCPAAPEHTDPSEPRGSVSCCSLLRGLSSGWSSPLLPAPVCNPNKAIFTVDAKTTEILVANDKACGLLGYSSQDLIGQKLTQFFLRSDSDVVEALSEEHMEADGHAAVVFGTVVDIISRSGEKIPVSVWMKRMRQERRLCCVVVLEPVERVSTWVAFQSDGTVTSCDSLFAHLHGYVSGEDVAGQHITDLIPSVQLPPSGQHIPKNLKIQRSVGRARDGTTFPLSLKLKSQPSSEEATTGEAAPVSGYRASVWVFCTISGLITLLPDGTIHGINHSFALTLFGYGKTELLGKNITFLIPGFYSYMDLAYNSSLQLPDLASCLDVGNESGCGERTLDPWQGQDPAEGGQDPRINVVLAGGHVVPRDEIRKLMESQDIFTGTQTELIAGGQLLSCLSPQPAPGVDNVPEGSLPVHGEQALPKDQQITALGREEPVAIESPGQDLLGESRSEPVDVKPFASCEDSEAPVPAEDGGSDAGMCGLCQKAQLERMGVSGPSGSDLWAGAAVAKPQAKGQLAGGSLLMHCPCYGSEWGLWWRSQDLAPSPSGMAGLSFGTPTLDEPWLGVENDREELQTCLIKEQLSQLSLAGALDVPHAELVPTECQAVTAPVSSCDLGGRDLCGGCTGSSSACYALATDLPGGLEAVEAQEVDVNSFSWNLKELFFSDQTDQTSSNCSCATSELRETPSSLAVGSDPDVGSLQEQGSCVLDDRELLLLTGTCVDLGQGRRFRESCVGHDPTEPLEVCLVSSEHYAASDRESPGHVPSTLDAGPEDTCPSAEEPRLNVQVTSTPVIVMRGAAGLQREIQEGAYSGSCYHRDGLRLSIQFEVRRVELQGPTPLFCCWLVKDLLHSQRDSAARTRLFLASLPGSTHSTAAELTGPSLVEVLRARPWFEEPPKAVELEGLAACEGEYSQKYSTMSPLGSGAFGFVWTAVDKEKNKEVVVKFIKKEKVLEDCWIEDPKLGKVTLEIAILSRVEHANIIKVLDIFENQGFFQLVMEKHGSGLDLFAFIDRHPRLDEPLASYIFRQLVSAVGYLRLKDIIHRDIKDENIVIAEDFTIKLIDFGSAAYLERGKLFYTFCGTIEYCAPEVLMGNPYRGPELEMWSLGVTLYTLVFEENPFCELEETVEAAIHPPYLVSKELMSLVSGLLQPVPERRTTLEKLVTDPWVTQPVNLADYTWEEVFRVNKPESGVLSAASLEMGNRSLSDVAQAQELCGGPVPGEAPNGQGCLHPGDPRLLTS
Method in brief: as §1

RIPK5 = biological target: T4, RIPK5 (Homo sapiens, UniProt Q6XUX3)
T4 construct: purchased Reaction Biology Corp
T4 sequence (Q6XUX3 1-929): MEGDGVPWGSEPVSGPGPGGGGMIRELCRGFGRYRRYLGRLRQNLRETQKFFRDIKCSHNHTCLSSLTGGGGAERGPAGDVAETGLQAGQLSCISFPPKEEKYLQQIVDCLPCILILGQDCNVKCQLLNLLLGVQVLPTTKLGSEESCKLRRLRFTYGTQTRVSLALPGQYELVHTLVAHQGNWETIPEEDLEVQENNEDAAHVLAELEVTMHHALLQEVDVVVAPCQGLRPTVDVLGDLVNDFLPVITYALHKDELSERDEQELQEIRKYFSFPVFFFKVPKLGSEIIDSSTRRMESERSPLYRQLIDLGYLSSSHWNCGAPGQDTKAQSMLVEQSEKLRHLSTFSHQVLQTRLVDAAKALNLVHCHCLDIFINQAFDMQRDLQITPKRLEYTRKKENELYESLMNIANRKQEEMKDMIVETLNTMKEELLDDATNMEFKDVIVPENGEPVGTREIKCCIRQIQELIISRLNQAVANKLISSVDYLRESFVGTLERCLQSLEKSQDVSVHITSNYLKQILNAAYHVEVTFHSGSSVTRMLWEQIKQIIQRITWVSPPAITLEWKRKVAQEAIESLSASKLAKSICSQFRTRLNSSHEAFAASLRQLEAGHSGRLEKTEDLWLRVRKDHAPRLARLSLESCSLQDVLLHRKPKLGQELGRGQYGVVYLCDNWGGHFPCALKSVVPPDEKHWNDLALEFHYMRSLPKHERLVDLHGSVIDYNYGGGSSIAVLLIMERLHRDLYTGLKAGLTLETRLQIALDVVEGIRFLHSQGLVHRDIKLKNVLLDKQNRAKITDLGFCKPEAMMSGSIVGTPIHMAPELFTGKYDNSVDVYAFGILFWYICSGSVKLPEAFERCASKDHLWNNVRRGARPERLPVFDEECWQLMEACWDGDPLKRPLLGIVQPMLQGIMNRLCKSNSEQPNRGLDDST
Method in brief: as §1

[1] = read-out: % Enzyme Activity (relative to DMSO controls) Run 1
[2] = read-out: % Enzyme Activity (relative to DMSO controls) Run 2

T1 sequence (P51957 whole entry): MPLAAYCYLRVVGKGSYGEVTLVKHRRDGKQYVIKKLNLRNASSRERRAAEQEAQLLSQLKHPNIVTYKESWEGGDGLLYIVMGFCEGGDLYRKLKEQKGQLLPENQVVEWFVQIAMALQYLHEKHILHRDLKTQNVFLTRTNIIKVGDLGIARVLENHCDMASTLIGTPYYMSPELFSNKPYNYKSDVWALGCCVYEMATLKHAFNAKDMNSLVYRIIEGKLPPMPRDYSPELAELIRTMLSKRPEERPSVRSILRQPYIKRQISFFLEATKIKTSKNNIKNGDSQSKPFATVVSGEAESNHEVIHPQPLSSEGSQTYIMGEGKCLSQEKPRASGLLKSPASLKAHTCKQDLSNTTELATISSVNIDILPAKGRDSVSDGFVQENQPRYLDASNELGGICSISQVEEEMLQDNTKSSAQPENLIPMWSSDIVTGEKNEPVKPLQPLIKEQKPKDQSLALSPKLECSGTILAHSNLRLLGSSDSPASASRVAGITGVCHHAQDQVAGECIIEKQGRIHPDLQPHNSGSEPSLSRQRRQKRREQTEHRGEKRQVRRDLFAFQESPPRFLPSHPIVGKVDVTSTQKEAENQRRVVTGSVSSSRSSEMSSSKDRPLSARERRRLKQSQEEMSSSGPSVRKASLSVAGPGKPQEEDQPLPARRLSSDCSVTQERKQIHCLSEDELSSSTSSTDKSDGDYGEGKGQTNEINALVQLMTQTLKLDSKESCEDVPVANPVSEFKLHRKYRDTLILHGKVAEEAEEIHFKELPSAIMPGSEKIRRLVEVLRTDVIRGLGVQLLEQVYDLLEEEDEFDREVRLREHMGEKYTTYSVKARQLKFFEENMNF

Work on `C=CC(=O)Nc1cccc(Nc2nc(Nc3ccc(OCCOC)c(F)c3)ncc2F)c1` [Compound 2] yielded an inhibition at 3 µM (NEK4) of 13.5%, a remaining activity at 3 µM (NEK4; [1]) of 84.6% and a remaining activity at 3 µM (NEK4; [2]) of 88.3%. It also gave an inhibition at 3 µM (TBK1) of 41.3%, a remaining activity at 3 µM (TBK1; [1]) of 58.1% and a remaining activity at 3 µM (TBK1; [2]) of 59.2%. For the same compound, the inhibition at 3 µM (PASK) was 6.14%, the remaining activity at 3 µM (PASK; [1]) was 94.7% and the remaining activity at 3 µM (PASK; [2]) was 93.1%. For the same compound, the inhibition at 3 µM (RIPK5) was 2.32%, the remaining activity at 3 µM (RIPK5; [1]) was 96.1% and the remaining activity at 3 µM (RIPK5; [2]) was 99.2%.
